Experiments:
NS3/4A BMS strain = NS3/4A BMS strain (Hepatitis C virus genotype 1a, UniProt P27958, C1454S/C1711G); assay: Recombinant HCV NS3/4A protease complex FRET peptide assay, BMS strain; type: biochemical, HCV genotype 1a; conditions: enzyme assay
Source text: (§1) The purpose of this in vitro assay was to measure the inhibition of HCV NS3 protease complexes, derived from the BMS, H77C or J416S strains, as described below, by compounds of the present invention. This assay provides an indication of how effective compounds of the present invention would be in inhibiting HCV […] proteolytic activity.
(§2) Serum from an HCV-infected patient was obtained from Dr. T. Wright, San Francisco Hospital. An engineered full-length cDNA template of the HCV genome (BMS strain) was constructed from DNA fragments obtained by reverse transcription-PCR (RT-PCR) of serum RNA and using primers selected on the basis of homology between other genotype 1a strains. From the determination of the entire genome sequence, a genotype 1a was assigned to the HCV isolate according to the classification of Simmonds et al. (See P Simmonds, K A Rose, S Graham, S W Chan, F McOmish, B C Dow, E A Follett, P L Yap and H Marsden, J. Clin. Microbiol., 31(6), 1493-1503 (1993)). […] The infectious clones, H77C (1a genotype) and J4L6S (1b genotype) were obtained from R. Purcell (NIH) and the sequences are published in genebank (AAB67036, see Yanagi, M., Purcell, R. H., Emerson, S. U. and Bukh, J. Proc. Natl. Acad. Sci. U.S.A. 94(16),8738-8743 (1997); AF054247, see Yanagi, M., St Claire, M., Shapiro, M., Emerson, S. U., Purcell, R. H. and Bukh, J, Virology 244 (1), 161-172. (1998)). […]

NS3/4A H77C strain = molecular target: T1, NS3/4A H77C strain (Hepatitis C virus genotype 1a, UniProt P27958, C1454S); assay: Recombinant HCV NS3/4A protease complex FRET peptide assay, H77C strain; type: biochemical, HCV genotype 1a
T1 construct: DNA encoding the recombinant HCV NS3/4A protease complex (amino acid 1027 to 1711) for these strains; inferred from pET21b vector and Ni-NTA purification; made in house; host or cells: E. coli BL21 (DE3)
T1 sequence (P27958 1027-1657 C1454S): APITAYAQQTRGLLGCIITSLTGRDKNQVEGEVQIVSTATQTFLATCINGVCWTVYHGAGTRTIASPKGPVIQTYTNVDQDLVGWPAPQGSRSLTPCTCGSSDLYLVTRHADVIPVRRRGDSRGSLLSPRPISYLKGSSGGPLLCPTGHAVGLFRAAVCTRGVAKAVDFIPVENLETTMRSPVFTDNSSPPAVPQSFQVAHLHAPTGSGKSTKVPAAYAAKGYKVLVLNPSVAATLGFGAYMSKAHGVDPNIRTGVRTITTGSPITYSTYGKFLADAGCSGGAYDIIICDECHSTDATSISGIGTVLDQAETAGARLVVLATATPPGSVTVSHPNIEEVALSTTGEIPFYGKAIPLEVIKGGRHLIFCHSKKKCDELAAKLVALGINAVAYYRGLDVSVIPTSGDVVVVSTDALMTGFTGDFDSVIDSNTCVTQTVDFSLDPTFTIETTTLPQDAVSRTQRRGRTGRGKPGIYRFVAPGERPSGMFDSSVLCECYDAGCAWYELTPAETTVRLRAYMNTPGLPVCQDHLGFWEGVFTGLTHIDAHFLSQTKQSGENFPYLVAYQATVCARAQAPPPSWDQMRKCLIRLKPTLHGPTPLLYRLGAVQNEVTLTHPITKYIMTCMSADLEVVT
T1 sequence (P27958 1658-1711 partner, looked up, stated change not applied): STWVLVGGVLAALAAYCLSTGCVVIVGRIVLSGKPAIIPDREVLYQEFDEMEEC
Source text: as §1, §2

NS3/4A J4L6S strain = molecular target: T2, NS3/4A J4L6S strain (Hepatitis C virus genotype 1b, UniProt O92972, C1454S/C1711G); assay: Recombinant HCV NS3/4A protease complex FRET peptide assay, J4L6S strain; type: biochemical, HCV genotype 1b
T2 construct: DNA encoding the recombinant HCV NS3/4A protease complex (amino acid 1027 to 1711) for these strains; inferred from pET21b vector and Ni-NTA purification; made in house; host or cells: E. coli BL21 (DE3)
T2 sequence (O92972 1027-1711 C1454S/C1711G): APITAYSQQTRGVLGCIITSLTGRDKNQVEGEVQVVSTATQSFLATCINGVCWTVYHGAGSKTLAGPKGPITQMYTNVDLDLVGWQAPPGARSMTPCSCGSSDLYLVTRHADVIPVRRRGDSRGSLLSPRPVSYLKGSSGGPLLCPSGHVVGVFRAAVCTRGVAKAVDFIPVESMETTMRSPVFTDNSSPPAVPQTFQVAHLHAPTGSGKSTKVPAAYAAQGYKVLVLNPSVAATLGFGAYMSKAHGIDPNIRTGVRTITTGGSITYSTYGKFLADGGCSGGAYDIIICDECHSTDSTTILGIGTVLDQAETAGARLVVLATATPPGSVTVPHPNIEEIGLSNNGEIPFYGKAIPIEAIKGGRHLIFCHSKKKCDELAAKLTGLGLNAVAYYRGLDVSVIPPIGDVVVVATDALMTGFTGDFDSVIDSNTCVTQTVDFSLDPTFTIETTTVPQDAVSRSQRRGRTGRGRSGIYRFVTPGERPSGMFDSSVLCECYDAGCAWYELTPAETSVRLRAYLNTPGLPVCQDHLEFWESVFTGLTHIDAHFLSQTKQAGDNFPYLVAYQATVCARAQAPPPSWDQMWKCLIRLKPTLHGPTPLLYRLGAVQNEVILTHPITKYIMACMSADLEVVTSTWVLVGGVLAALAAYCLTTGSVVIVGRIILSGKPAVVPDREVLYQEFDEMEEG
Source text: as §1, §2

[1] = molecular target: T3, porcine pancreatic elastase (Sus scrofa, UniProt P00772); assay: Specificity assay, porcine pancreatic elastase; type: biochemical; conditions: read-out: PPE
T3 construct: from tissue; host or cells: pancreas (from the enzyme's name only)
T3 sequence (P00772 27-266): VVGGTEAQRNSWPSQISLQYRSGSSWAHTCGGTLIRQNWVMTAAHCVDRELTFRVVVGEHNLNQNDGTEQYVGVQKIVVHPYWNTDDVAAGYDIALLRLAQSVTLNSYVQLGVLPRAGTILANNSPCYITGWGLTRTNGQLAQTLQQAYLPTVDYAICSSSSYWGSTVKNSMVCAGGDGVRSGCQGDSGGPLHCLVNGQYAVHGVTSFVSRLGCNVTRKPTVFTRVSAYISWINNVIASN
Description: (§3) The specificities of compounds of the present invention were determined against a variety of serine proteases: human leukocyte elastase, porcine pancreatic elastase and bovine pancreatic α-chymotrypsin and one cysteine protease: human liver cathepsin B. In all cases a 96-well plate format protocol using calorimetric […] (pNA) substrate specific for each enzyme was used as described previously (Patent WO 00/09543) with some modifications.
(§4) Each assay included a 1 h enzyme-inhibitor pre-incubation at RT followed by addition of substrate and hydrolysis to ˜30% conversion as measured on a Spectramax Pro microplate reader. Compound concentrations varied from 100 to 0.4 μM depending on their potency.
(§5) The final conditions and protocol for each assay was as reported previously (Patent WO 00/09543) with the inclusion of an additional assay: • 50 mM Tris-HCl pH 8, 0.5M Na2SO4, 50 mM NaCl, 0.1 mM EDTA, 3% DMSO, 0.01% Tween-20 with 133 μM succ-AAA-PNA and 20 nM Elastase
(§6) The percentage of inhibition was calculated using the formula: [1−((UVinh−UVblank)/(UVctl−UVblank))]×100

human liver cathepsin B = molecular target: T4, human liver cathepsin B (Homo sapiens, UniProt P07858); assay: Specificity assay, human liver cathepsin B; type: biochemical
T4 construct: from tissue; host or cells: liver
Description: as §3, §4, §5, §6

Sequence of NS3/4A BMS strain (P27958 1027-1711, stated change not applied): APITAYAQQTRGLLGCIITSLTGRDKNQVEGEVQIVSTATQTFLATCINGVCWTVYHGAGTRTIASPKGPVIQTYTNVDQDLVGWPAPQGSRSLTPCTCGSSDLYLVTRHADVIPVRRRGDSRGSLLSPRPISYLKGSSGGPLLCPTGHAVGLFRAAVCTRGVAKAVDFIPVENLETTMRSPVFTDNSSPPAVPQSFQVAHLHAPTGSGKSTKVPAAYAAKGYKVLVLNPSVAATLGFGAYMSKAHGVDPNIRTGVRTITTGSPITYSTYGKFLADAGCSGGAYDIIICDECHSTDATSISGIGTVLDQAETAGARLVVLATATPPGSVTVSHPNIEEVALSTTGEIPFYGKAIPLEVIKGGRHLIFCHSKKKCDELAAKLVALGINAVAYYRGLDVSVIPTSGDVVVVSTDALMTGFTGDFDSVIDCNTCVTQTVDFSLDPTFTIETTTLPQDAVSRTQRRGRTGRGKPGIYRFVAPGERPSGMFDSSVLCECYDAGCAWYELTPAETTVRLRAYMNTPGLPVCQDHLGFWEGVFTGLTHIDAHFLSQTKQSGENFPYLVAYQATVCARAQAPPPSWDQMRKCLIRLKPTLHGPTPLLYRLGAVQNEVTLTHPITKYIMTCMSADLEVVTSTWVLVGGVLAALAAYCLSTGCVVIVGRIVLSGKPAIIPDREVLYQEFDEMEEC
Sequence of NS3/4A BMS strain (P27958 1027-1711, stated change not applied): as above

`C=CC1C[C@]1(NC(=O)[C@@H]1C[C@@H](Oc2cc(-c3ccccc3)nc3cc(OC)ccc23)CN1C(=O)C(NC(=O)OC(C)(C)C)C(C)(C)C)C(=O)NS(=O)(=O)c1ccc(NC(C)=O)cc1` (some centres unmarked) [Compound 58] was tested. Which IC50 (NS3/4A BMS strain) did it give?
Its IC50 is 17 nM.

And the IC50 (NS3/4A H77C strain)?
Its IC50 is 10 nM.

What about the IC50 (NS3/4A J4L6S strain) of the same compound?
The IC50 was 8 nM.

And the IC50 [1]?
The IC50 was over 100000 nM.

What about the IC50 (human liver cathepsin B) of the same compound?
The IC50 was over 100000 nM.

From patent publication US6872805B2 (Bristol-Myers Squibb Company, priority 2000, dated 2005)
